In the supplement of paper PMC10307832:

How the values were obtained:
Assay in all cases: relative viability (nuclei count vs DMSO), 5 days (fraction); higher = more cells survive
IMD-0354 + Crizotinib = compound: O=C(Nc1cc(C(F)(F)F)cc(C(F)(F)F)c1)c1cc(Cl)ccc1O [IMD-0354] + C[C@@H](Oc1cc(-c2cnn(C3CCNCC3)c2)cnc1N)c1c(Cl)ccc(F)c1Cl [Crizotinib] (partner 1 µM)
Summary of the method: (§1)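 Lung cancer cell lines were seeded in 1536-well plates and dosed by pin tool the next day, with either a single drug or a fixed anchor-drug dose combined with five library-drug doses (not always all listed) spaced in √10 steps. Five days later, one step fixed the cells and stained their nuclei (final 0.05% Triton X-100, 1% formaldehyde, 1 ug/ml Hoechst), and nuclei were counted on 4× images. Relative viability is the nuclei count in treated wells divided by the count in vehicle wells, and each value is the median of duplicate plates.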

IMD-0354 + Navitoclax = compound: O=C(Nc1cc(C(F)(F)F)cc(C(F)(F)F)c1)c1cc(Cl)ccc1O [IMD-0354] + CC1(C)CCC(c2ccc(Cl)cc2)=C(CN2CCN(c3ccc(C(=O)NS(=O)(=O)c4ccc(N[C@H](CCN5CCOCC5)CSc5ccccc5)c(S(=O)(=O)C(F)(F)F)c4)cc3)CC2)C1 [Navitoclax] (partner 0.5 µM)
Summary of the method: as §1

CX-5461 + Tozasertib = compound: Cc1cnc(CNC(=O)c2c(=O)c3ccc(N4CCCN(C)CC4)nc3n3c2sc2ccccc23)cn1 [CX-5461] + Cc1cc(Nc2cc(N3CCN(C)CC3)nc(Sc3ccc(NC(=O)C4CC4)cc3)n2)n[nH]1 [Tozasertib] (partner 0.1 µM)
Summary of the method: as §1

IMD-0354 + Pemetrexed = compound: O=C(Nc1cc(C(F)(F)F)cc(C(F)(F)F)c1)c1cc(Cl)ccc1O [IMD-0354] + Nc1nc2[nH]cc(CCc3ccc(C(=O)N[C@@H](CCC(=O)O)C(=O)O)cc3)c2c(=O)[nH]1 [Pemetrexed] (partner 0.2 µM)
Summary of the method: as §1

Cell Line	relative viability (IMD-0354 + Crizotinib; first compound 0.04 µM)	relative viability (IMD-0354 + Crizotinib; first compound 0.1265 µM)	relative viability (IMD-0354 + Crizotinib; first compound 0.4 µM)	relative viability (IMD-0354 + Crizotinib; first compound 1.265 µM)	relative viability (IMD-0354 + Crizotinib; first compound 4 µM)	relative viability (IMD-0354 + Navitoclax; first compound 0.04 µM)	relative viability (IMD-0354 + Navitoclax; first compound 0.1265 µM)	relative viability (IMD-0354 + Navitoclax; first compound 0.4 µM)	relative viability (IMD-0354 + Navitoclax; first compound 1.265 µM)	relative viability (IMD-0354 + Navitoclax; first compound 4 µM)	relative viability (CX-5461 + Tozasertib; first compound 0.01 µM)	relative viability (CX-5461 + Tozasertib; first compound 0.03162 µM)	relative viability (CX-5461 + Tozasertib; first compound 0.1 µM)	relative viability (CX-5461 + Tozasertib; first compound 0.3162 µM)	relative viability (CX-5461 + Tozasertib; first compound 1 µM)	relative viability (IMD-0354 + Pemetrexed; first compound 0.04 µM)	relative viability (IMD-0354 + Pemetrexed; first compound 0.1265 µM)	relative viability (IMD-0354 + Pemetrexed; first compound 0.4 µM)	relative viability (IMD-0354 + Pemetrexed; first compound 1.265 µM)	relative viability (IMD-0354 + Pemetrexed; first compound 4 µM)
SK-MES-1	1.03	1.08	0.559	0.721	0.252	1.48	1.12	0.649	0.441	0.314	1	0.977	0.728	0.815	0.294	1.16	1.06	0.466	0.349	0.187
NCI-H2170	1.3	1.39	0.574	1.2	0.33	0.608	0.585	0.562	0.644	0.274	0.781	0.768	0.727	0.581	0.637	0.275	0.302	0.235	0.286	0.191
EPLC-272H	1.04	0.787	0.67	0.822	0.225	1.45	1	0.54	1.06	0.25	0.22	0.381	0.33		0.477	0.332	0.278	0.474	0.247	0.214
NCI-H1915	0.787	0.906	0.527	0.434	0.194	0.708	0.857	0.412	0.661	0.219	0.426	0.471	0.417	0.312	0.426	0.557	0.469	0.357	0.399	0.163
NCI-H596	0.928	1.04	0.858	0.955	0.451	0.96	0.854	0.777	0.982	0.476	0.866	1.04	0.984	0.863	0.796	0.546	0.526	0.344	0.461	0.396
NCI-H322M	1.06	0.972	0.811	0.851	0.257	1.27	1.23	1.12	1.5	0.267	0.441	0.508	0.49	0.503	0.443	0.673	0.65	0.543	0.332	0.422
NCI-H2228	0.389	0.442	0.405	0.179	0.22	0.738	1.12	0.589	1.27	0.355	0.245	0.213	0.224	0.261	0.0867	0.379	0.37	0.292	0.22	0.125
NCI-H647	1.37	1.2	0.505	0.168	0.185	1.47	1.57	0.521	0.198	0.068	0.386	0.335	0.307	0.262	0.186	0.182	0.148	0.185	0.111	0.0986
